Assay results taken from US20160137639A1, “TRIAZOLE-ISOXAZOLE COMPOUND AND MEDICAL USE THEREOF” (JAPAN TOBACCO INC., priority 2012, published 2016).
Read-outs that look alike come from different tables or passages of the source.

Assays:
human RORγ = molecular target: T1, human RORγ (Homo sapiens, UniProt P51449); test: Luciferase reporter gene assay of inhibitory effect against RORγ transcriptional activity (GAL4-hRORγ plasmid in CHO cells); assay type: cell-based
T1 construct: human, NM_005060.3 and from Ser253 to Lys518; expressed in transfected cells; host or cells: CHO cells (transient co-transfection with pG5-Luc reporter)
T1 sequence (P51449 253-518): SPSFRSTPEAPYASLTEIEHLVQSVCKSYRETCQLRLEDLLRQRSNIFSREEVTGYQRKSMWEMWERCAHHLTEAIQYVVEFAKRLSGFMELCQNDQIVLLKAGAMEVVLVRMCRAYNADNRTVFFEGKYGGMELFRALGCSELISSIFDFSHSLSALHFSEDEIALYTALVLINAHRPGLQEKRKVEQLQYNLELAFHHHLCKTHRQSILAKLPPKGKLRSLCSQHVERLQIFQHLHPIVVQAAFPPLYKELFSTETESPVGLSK
Description: (§1) In vitro assay of inhibitory effect against RORγ transcriptional activity
(§2) Inhibitory effect of test article on transcriptional activity of RORγ was measured by means of the following luciferase reporter gene assay.
(§3) A cDNA encoding human and mouse RORγ ligand binding domain (LBD) were obtained based on the reported sequences (Genebank accession number and sequence: human, NM_005060.3 and from Ser253 to Lys518; mouse, NM_011281.2 and from Ile251 to Lys516).
(§4) The cDNA of human RORγ or mouse RORγ was inserted into pFA-CMV vector (Strategene), which expresses GAL4-DNA binding domain fusion protein.
(§5) The resulting plasmids are hereinafter referred to as GAL4-hRORγ plasmid and GAL4-mRORγ plasmid, respectively.
(§6) Human or mouse GAL4-RORγ plasmid was transiently co-transfected into Chinese hamster ovary cells (CHO cells) with […] plasmid, a reporter plasmid expressing firefly luciferase depending on GAL4.
(§7) TransIT CHO transfection reagent (Mirus) was used to co-transfect human or mouse GAL4-RORγ plasmid into CHO cells with pG5-Luc plasmid.
(§8) One day before the assay, CHO cells were suspended in HAM F-12 Nutrient medium containing 10 v/v % fetal bovine serum and seeded at 6×10^6 cells per 175 cm^2 cell culture flask.
(§9) Fifty four micro litters of Transit-CHO reagent was added into a 15 ml tube containing 1.16 ml of HAM F-12 Nutrient medium without fetal bovine serum and incubated at room temperature for 10 min.
A total 36 uL plasmid solution containing the GAL4-hRORγ plasmid (400 ng), pG5-Luc plasmid (9000 ng) and pcDNA3 plasmid (8600 ng) were added into the tube and mixed gently.
(§10) The mixture was incubated at room temperature for 10 min.
(§11) Nine micro litters of CHO Mojo Reagent was then added into each tube and mixed gently. The mixture was incubated at room temperature for 10 min.
(§12) The resultant transfection reagent was applied to the cell culture.
(§13) After incubation at 37° C., 5% CO2 for 4 hr, the transfected CHO cells were harvested by a trypsin treatment.
(§14) The collected cells were resuspended in HAM F-12 Nutrient medium supplemented with 10 v/v % fetal bovine serum and plated into a 384-well-white plate at 8,000 cells/50 uL/well.
(§15) The plate was incubated at room temperature for 1 hour and then further incubated at 37° C., 5% CO2 for 3 hours.
(§16) The test articles were dissolved in dimethylsulfoxide (DMSO) to obtain a concentration of 10 mmol/L. The resulting solution was diluted with the medium just before use and added to the cells in the plate to prepare 8 different concentrations of the test article.
(§17) The final concentration of DMSO was 0.1 v/v % After the addition of the test articles, the cells were incubated at 37° C., 5% CO2 for 2 days.
(§18) RORγ transcriptional activity was detected as the intracellular luciferase activity using SteadyLite HTS Reporter Gene Assay System (Perkin Elmer).
(§19) StedyLite Reagent was diluted five-fold into a solution containing 10 mM Tricine, 0.2% w/v BSA, 0.02% v/v Tween-20 to obtain the luciferase substrate solution.
(§20) After the measurement of the cell viability using Resazurin, the culture media in the 384 well-plate were removed. Then the Luc substrate solution was added into each well.
(§21) After the incubation at room temperature for 10 minutes, luminescence of each well was measured by a microplate reader.
(§22) The luciferase activity derived from the luminescence count in the vehicle-control well treated with 0.1% DMSO alone was defined as 100%, and the luciferase activity in the test article was calculated as a percentage (%-of-control) based on the value of the vehicle-control.
(§23) EC50 value of test article was calculated by curve fitting with GraphPad Prism.
(§24) The luminescence counts at the concentration of the test article where the cytotoxicity was observed were excluded from the data analysis.

mouse RORγ = molecular target: T2, mouse RORγ (Mus musculus, UniProt P51450); test: Luciferase reporter gene assay of inhibitory effect against RORγ transcriptional activity (GAL4-mRORγ plasmid in CHO cells); assay type: cell-based
T2 construct: mouse, NM_011281.2 and from Ile251 to Lys516; expressed in transfected cells; host or cells: CHO cells (transient co-transfection with pG5-Luc reporter)
T2 sequence (P51450 251-516): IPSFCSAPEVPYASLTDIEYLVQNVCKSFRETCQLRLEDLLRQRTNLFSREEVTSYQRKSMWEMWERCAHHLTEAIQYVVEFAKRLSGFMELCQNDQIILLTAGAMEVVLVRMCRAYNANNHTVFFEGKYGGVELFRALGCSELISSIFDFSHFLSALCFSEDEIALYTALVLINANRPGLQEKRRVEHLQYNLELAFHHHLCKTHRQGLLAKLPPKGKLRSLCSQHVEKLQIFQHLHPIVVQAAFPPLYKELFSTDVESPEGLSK
Description: as §1, §2, §3, §4, §5, §6, §7, §8, §9, §10, §11, §12, §13, §14, §15, §16, §17, §18, §19, §20, §21, §22, §23, §24

SMILES	EC50 (human RORγ; read-out: LUC EC50 hRORg)	EC50 (mouse RORγ; read-out: LUC EC50 mRORg)	EC50 (human RORγ; read-out: LUC EC50 (μM) hRORg)	EC50 (mouse RORγ; read-out: LUC EC50 (μM) mRORg)	further results
Cc1ccc(NC(=O)CCc2noc([C@H]3C[C@@H](CC(C)C)C3)c2CCC(=O)O)c(C)c1 [Example F-664]	> 3 µM	> 3 µM			
Cc1ccc(NC(=O)C[C@H](N)c2nnc(CCCC(C)(C)C)n2C2CC2)c(C)c1 [Example F-359]			< 3 µM	< 3 µM	
Cc1ccc(NC(=O)CCc2noc(C3(CCO)CC(CC(C)(C)C)C3)c2C2CC2)c(Cl)c1 (mixture of isomers) [Example F-742]	> 3 µM	> 3 µM			
Cc1cc(C)c(NC(=O)C[C@H](CCC(=O)O)c2noc([C@H]3C[C@@H](CC(C)(C)C)C3)c2C2CC2)cn1 [Example F-675]	< 3 µM	< 3 µM			
Cc1ccc(NC(=O)C(C)C(CCOCc2ccccc2)c2nnc([C@H]3C[C@@H](CC(C)C)C3)n2C2CC2)c(C)c1 (mixture of isomers) [Example F-488]			> 3 µM	< 3 µM	
CC(=O)N1C[C@H](C(=O)Nc2ccc(C)cc2C)[C@@H](c2nnc([C@H]3CC[C@H](C(C)C)CC3)n2C2CC2)C1 (racemic) [Example F-300]			< 3 µM	< 3 µM	
Cc1ccc(NC(=O)C[C@H](CCC(=O)O)c2cc([C@H]3C[C@@H](CC(C)(C)C)C3)on2)c(Cl)c1 [Example F-676]	< 3 µM	< 3 µM			
Cc1ccc(NC(=O)C[C@@H](CC#N)c2nnc([C@H]3C[C@@H](CC(C)C)C3)n2C2CC2)c(C)c1 [Example F-464]			> 3 µM	< 3 µM	
CCc1cccc(NC(=O)CCc2nnc(CCC(C)C)n2C2CC2)c1C [Example F-147]			> 3 µM	< 3 µM	
CCn1c(CCC(=O)Nc2cccc(Cl)c2C)nnc1CCC1CCCC1 [Example F-54]			< 3 µM	< 3 µM	
Cc1c(Cl)cccc1NC(=O)CCc1nnc(CCCC(C)C)n1C1CC1 [Example F-120]			< 3 µM	< 3 µM	
COc1cc(C)ccc1CNC(=O)CCc1nnc(CCC(C)C)n1C1CC1 [Example F-148]			< 3 µM	< 3 µM	
Cc1c(NC(=O)CCc2nnc(CCC(C)C)n2C2CC2)cccc1C1CC1 [Example F-156]			> 3 µM	< 3 µM	
CC(=O)N1C[C@H](C(=O)Nc2ccc(Cl)cc2C)[C@@H](c2nnc([C@H]3C[C@@H](CC(C)(C)F)C3)n2C2CC2)C1 [Example F-611]	< 3 µM	< 3 µM			
CC(C)CCc1nnc(CCC(=O)NCc2cccc3[nH]cnc23)n1C1CC1 [Example F-115]			> 3 µM	> 3 µM	
CC(C)Cn1c(CCC(=O)Nc2cccc3ccccc23)nnc1C1Cc2ccccc2C1 [Example F-11]					EC50 (human RORγ; LUC EC50 (μM) hRORg): > 3 µM; EC50 (mouse RORγ; LUC EC50 (μM) mRORg): > 3 µM
Cc1cc(F)ccc1NC(=O)[C@@H]1CC(F)(F)C[C@H]1c1nnc(-c2cc(CC(C)C)on2)n1C1CC1 [Example F-593]	> 3 µM	< 3 µM			
Cc1ccc(NC(=O)C[C@H](CCO)c2nnc(-c3cc(CC(C)(C)C)on3)n2C2CC2)c(C)c1 [Example F-612]	< 3 µM	< 3 µM			
Cc1ccc(NC(=O)C[C@H](CCOCc2ccccc2)c2nnc([C@H]3C[C@@H](CC(C)C)C3)n2C2CC2)c(C)c1 [Example F-456]			< 3 µM	< 3 µM	

SMILES	EC50 (human RORγ; read-out: LUC EC50 hRORg)	EC50 (mouse RORγ; read-out: LUC EC50 mRORg)	EC50 (human RORγ; read-out: LUC EC50 (μM) hRORg)	EC50 (mouse RORγ; read-out: LUC EC50 (μM) mRORg)	further results
CC(=O)N1C[C@@H](C(=O)Nc2ccc(C)cc2C)[C@H](c2nnc(-c3ccc(C(C)C)cc3)n2C2CC2)C1 [Example F-372]			> 3 µM	> 3 µM	
CC(=O)OCCC1(c2onc(CCC(=O)Nc3ccc(C)cc3Cl)c2C2CC2)CC(CC(C)(C)C)C1 (mixture of isomers) [Example F-737]	> 3 µM	> 3 µM			
Cc1ccc(NC(=O)C[C@H](CC(=O)O)c2noc([C@H]3C[C@@H](CC(C)C)C3)c2C2CC2)cn1 [Example F-667]	> 3 µM	< 3 µM			
Cc1c(Cl)cccc1NC(=O)CC(CCCOCc1ccccc1)c1nnc(CCC(C)C)n1C1CC1 (racemic) [Example F-195]			< 3 µM	< 3 µM	
Cc1ccc(NC(=O)C[C@H](CCC(=O)O)c2noc(-c3cc(C(F)(F)C4CCCC4)on3)c2C2CC2)c(Cl)c1 [Example E-39]			< 3 µM	< 3 µM	
Cc1ccc(NC(=O)C[C@H](CC(O)C(F)(F)F)c2nnc([C@H]3C[C@@H](CC(C)C)C3)n2C2CC2)c(C)c1 (single isomer, unassigned) [Example F-622]	< 3 µM	< 3 µM			
CCn1c(CCCC(C)(C)C)nnc1[C@@H]1[C@@H](C(=O)Nc2ccc(C)cc2C)CCN1C(C)=O [Example F-369]			< 3 µM	< 3 µM	
CC(=O)NCCC(CC(=O)Nc1ccc(C)cc1C)c1nnc(CCCC(C)C)n1C1CC1 (racemic) [Example F-275]			> 3 µM	> 3 µM	
Cc1ccc(NC(=O)CCc2nnc(C3CC(CC(=O)OC(C)(C)C)C3)n2C2CC2)c(C)c1 (mixture of isomers) [Example F-427]			> 3 µM	< 3 µM	
CCOC(=O)[C@H]1CC[C@H](CCc2nnc(CCC(=O)Nc3cccc(Cl)c3C)n2C2CC2)CC1 [Example F-240]			> 3 µM	< 3 µM	
CC(=O)N1CCCC(CCc2nnc(CCC(=O)Nc3cccc(Cl)c3C)n2C2CC2)C1 (racemic) [Example F-190]			> 3 µM	> 3 µM	
Cc1ccc(NC(=O)C[C@H](CCC(=O)O)c2noc([C@H]3C[C@@H](CC(C)(C)C)C3)c2C2CC2)nc1C [Example F-680]	< 3 µM	< 3 µM			
Cc1ccc(NC(=O)C[C@H](c2nnc([C@H]3C[C@@H](CC(C)C)C3)n2C2CC2)[C@H]2C[C@@H](O)C2)c(C)c1 [Example F-514]		> 3 µM			
Cc1ccc(NC(=O)C[C@@H](c2nnc([C@H]3C[C@@H](CC(C)C)C3)n2C2CC2)[C@H]2C[C@H](O)C2)c(C)c1 [Example F-523]		< 3 µM			
CCn1c(CCC2CCCCC2)nnc1[C@H]1C[C@@H]1C(=O)Nc1cccc2ccccc12 (racemic) [Example F-37]				< 3 µM	
Cc1ccc(NC(=O)C[C@H](c2nnc([C@H]3C[C@@H](CC(C)C)C3)n2C2CC2)[C@H]2C[C@H](O)C2)c(C)c1 [Example F-522]		> 3 µM			
CC(=O)N1C[C@H](C(=O)Nc2ccc(C)cc2C)[C@@H](c2nnc(CCCC(C)(C)C)n2C2CC2)C1 [Example F-432]			< 3 µM		
Cc1ccc(NC(=O)[C@H](CC(=O)O)Cc2noc([C@H]3C[C@@H](CC(C)(C)C)C3)c2C2CC2)c(Cl)c1 [Example F-678]	< 3 µM				
Cc1ccc(NC(=O)C[C@@H](c2nnc([C@H]3C[C@@H](CC(C)C)C3)n2C2CC2)[C@H]2C[C@@H](O)C2)c(C)c1 [Example F-515]		< 3 µM			
